From patent publication US10676429B2, “Sulfamoyl-arylamides and the use thereof as medicaments for the treatment of hepatitis B” (priority 2012, dated 2020)

Experiments:
HBV [1] = assay: Anti-HBV activity in HepG2.117 cell line (Tet-off, intracellular HBV DNA, realtime PCR); assay type: cell-based
HBV [2] = assay: Anti-HBV activity in stable transfected HepG2.2.15 cell line (HBV DNA from secreted virions, realtime PCR); assay type: cell-based
[3] = Cytotoxicity in HepG2 cells, 4 days, Resazurin assay; conditions: human
[4] = Hepatitis B virus, HepG2.117, 72 h, HepG2.117 cells, 3 days of treatment, intracellular HBV DNA, read-out: HepG2 117 EC50
[5] = Hepatitis B virus, HepG2.2.15, 144 h, HepG2.2.15 cells, 6 days of treatment, secreted virion HBV DNA, read-out: HepG2 2.15 EC50

Row | SMILES | EC50 (HBV [1]; HepG2.117 cells, 3 days of treatment, intracellular HBV DNA, read-out: HepG2 117 EC50) [µM] | EC50 (HBV [2]; HepG2.2.15 cells, 6 days of treatment, secreted virion HBV DNA, read-out: HepG2 2.15 EC50) [µM] | CC50 at 4 days ([3]; HepG2 cells) [µM] | EC50 (HBV [1]; [4]) [µM] | EC50 (HBV [2]; [5]) [µM] | EC50 (HBV [1]; Hepatitis B virus, HepG2.117, 72 h, read-out: HepG2 117 EC50 (μM)) [µM] | EC50 (HBV [2]; Hepatitis B virus, HepG2.2.15, 144 h, read-out: HepG2 2.15 EC50 (μM)) [µM] | CC50 at 4 days [3] [µM]
1 | Cc1cc(NC(=O)c2cccc(S(=O)(=O)NC3CCC(O)C3)c2)ccc1F (single isomer, unassigned) [Compound 145a, N-(4-fluoro-3-methyl-phenyl)-3-[[(1R,3S)-3-hydroxycyclopentyl]sulfamoyl]benzamide or N-(4-fluoro-3-methyl-phenyl)-3-[[(1S,3R)-3-hydroxycyclopentyl]sulfamoyl]benzamide] | 0.21 | 0.14 | > 25 |  |  |  |  | 
2 | O=C(Nc1cccc(C(F)(F)F)c1)c1cc(S(=O)(=O)NC2CCCCC2)ccc1F [Compound 7] |  |  | 11.4 | 0.56 | 0.66 |  |  | 
3 | Cc1cc(NC(=O)c2cccc(S(=O)(=O)NC3CCCC3)c2)ccc1F [Compound 11] |  |  | 19.6 | 0.42 | 0.1 |  |  | 
4 | Cc1cc(F)cc(NC(=O)c2cccc(S(=O)(=O)NC3CCCC3)c2)c1 [Compound 12] |  |  | 13.3 | 1.51 | 0.11 |  |  | 
5 | Cc1ccc(NC(=O)c2cccc(S(=O)(=O)NC3CCCC3)c2)cc1F [Compound 13] |  |  | 13.8 | 15.3 | 1.99 |  |  | 
6 | O=C(Nc1ccc(F)c(F)c1)c1cccc(S(=O)(=O)NC2CCCC2)c1 [Compound 14] |  |  | 11.7 | 0.36 | 0.09 |  |  | 
7 | O=C(Nc1cc(F)cc(F)c1)c1cccc(S(=O)(=O)NC2CCCC2)c1 [Compound 15] |  |  | 10.1 | 0.78 | 0.28 |  |  | 
8 | Cc1cc(NC(=O)c2cccc(S(=O)(=O)NC3CCCC3)c2)ccc1C#N [Compound 16] |  |  | 10.3 | 2.8 | 1.21 |  |  | 
9 | Cc1cccc(NC(=O)c2cc(S(=O)(=O)N3CCCCC3)c(Cl)cc2Cl)c1 [Compound 17] |  |  | > 100 | 2.65 | 0.56 |  |  | 
10 | O=C(Nc1ccc(F)cc1)c1cccc(S(=O)(=O)N2CCCC2)c1 [Compound 36] |  |  | 97 | 3.03 | 4.53 |  |  | 
11 | CN(C(=O)C1CCCCC1)S(=O)(=O)c1cccc(C(=O)Nc2ccc(F)cc2)c1 [Compound 48] |  |  | 97.2 | 1.88 | 2.92 |  |  | 
12 | CN(C)S(=O)(=O)c1ccc(F)c(C(=O)Nc2ccccc2)c1 [Compound 49] |  |  | > 100 | 9.15 | 13.4 |  |  | 
13 | O=C(Nc1ccc(C(F)(F)F)cc1)c1cc(S(=O)(=O)NC2CCCC2)ccc1F [Compound 50] |  |  | 11.3 | 15.8 | 45.9 |  |  | 
14 | O=C(Nc1ccc(Cl)cc1)c1cc(S(=O)(=O)NC2CCCC2)ccc1F [Compound 51] |  |  | 20.8 | 9.44 | 3.98 |  |  | 
15 | O=C(Nc1ccc(F)cc1)c1cc(S(=O)(=O)N2CCC3(CC2)OCCO3)ccc1F [Compound 52] |  |  | > 50 | 2.44 | 1.94 |  |  | 
16 | O=C(Nc1ccc(F)cc1)c1cc(S(=O)(=O)NC2CCCC2)ccc1F [Compound 53] |  |  | > 50 | 0.44 | 0.36 |  |  | 
17 | O=C(Nc1ccc(F)cc1)c1cc(S(=O)(=O)N2CCCCC2)ccc1Cl [Compound 54] |  |  | > 50 | 1.55 | 1.63 |  |  | 

Row | SMILES | EC50 (HBV [1]; HepG2.117 cells, 3 days of treatment, intracellular HBV DNA, read-out: HepG2 117 EC50) [µM] | EC50 (HBV [2]; HepG2.2.15 cells, 6 days of treatment, secreted virion HBV DNA, read-out: HepG2 2.15 EC50) [µM] | CC50 at 4 days ([3]; HepG2 cells) [µM] | EC50 (HBV [1]; [4]) [µM] | EC50 (HBV [2]; [5]) [µM] | EC50 (HBV [1]; Hepatitis B virus, HepG2.117, 72 h, read-out: HepG2 117 EC50 (μM)) [µM] | EC50 (HBV [2]; Hepatitis B virus, HepG2.2.15, 144 h, read-out: HepG2 2.15 EC50 (μM)) [µM] | CC50 at 4 days [3] [µM]
18 | O=C(Nc1ccccc1)c1cccc(S(=O)(=O)NC2CC2)c1 [Compound 55] |  |  | > 100 | 3.26 | 3.06 |  |  | 
19 | O=C(Nc1ccc(F)cc1)c1cccc(S(=O)(=O)NC(=O)C2CCCCC2)c1 [Compound 56] |  |  | > 100 | 5.45 | 1.64 |  |  | 
20 | O=C(Nc1ccc(F)cc1)c1ccc(S(=O)(=O)N2CCCCC2)o1 [Compound 57] |  |  | 52.1 | 12.7 | 15.5 |  |  | 
21 | O=C(Nc1ccccc1)c1ccc(S(=O)(=O)N2CCCCC2)o1 [Compound 58] |  |  | 62.5 | 19.9 | 14.6 |  |  | 
22 | O=C(Nc1ccccc1)c1cc(S(=O)(=O)N2CCCCC2)cs1 [Compound 59] |  |  | 46.7 | 19.3 | 12.8 |  |  | 
23 | O=C(Nc1ccccc1)c1cc(S(=O)(=O)NC2CCCCC2)cs1 [Compound 60] |  |  | 29.1 | 0.67 | 0.85 |  |  | 
24 | O=C(Nc1ccc(F)cc1)c1cc(S(=O)(=O)N2CCCCC2)cs1 [Compound 61] |  |  |  |  |  | 15.4 | 7.07 | 35.7
25 | Cc1[nH]c(C(=O)Nc2ccccc2)c(C)c1S(=O)(=O)N1CCCCC1 [Compound 62] |  |  | > 50 | 10.1 | 7.06 |  |  | 
26 | O=C(Nc1ccccc1)c1c[nH]c(S(=O)(=O)NC2CCCCC2)n1 [Compound 63] |  |  | > 100 | 21.1 | 9.94 |  |  | 
27 | O=C(Nc1ccccc1)c1cccc(S(=O)(=O)NC2CCCCC2)n1 [Compound 65] |  |  | 35.3 | > 25 | 10.8 |  |  | 
28 | O=C(Nc1ccccc1)c1ccnc(S(=O)(=O)NC2CCCCC2)c1 [Compound 66] |  |  | > 100 | 14.5 | 4.27 |  |  | 
29 | O=C(Nc1ccccc1)c1cc(S(=O)(=O)NC2CCCCC2)ccn1 [Compound 67] |  |  | > 100 | 18.6 | 11.1 |  |  | 
30 | O=C(Nc1ccccc1)c1cncc(S(=O)(=O)NC2CCCCC2)c1 [Compound 68] |  |  | 68 | > 25 | 18.6 |  |  | 
31 | O=C(Nc1ccc(F)cc1)c1cccc(S(=O)(=O)N2CCCCC2=O)c1 [Compound 69] |  |  | > 25 | 10.4 | 3.9 |  |  | 
32 | CC[C@@H](C)NS(=O)(=O)c1cccc(C(=O)Nc2ccc(F)cc2)c1 [Compound 70] |  |  | > 25 | 0.89 | 0.34 |  |  | 
33 | CC[C@H](C)NS(=O)(=O)c1cccc(C(=O)Nc2ccc(F)cc2)c1 [Compound 71] |  |  | > 25 | 8.63 | 0.75 |  |  | 
34 | Cc1cc(NC(=O)c2cccc(S(=O)(=O)N[C@H]3CCOC3)c2)ccc1F [Compound 72] |  |  | > 25 | 0.37 | 0.12 |  |  | 
